System: MV-4-11 cells
Assay: Gene expression microarray analysis (Affymetrix PrimeView) and GSEA
Format: cell-based, human
Design: RFU PODN (11730768_x_at) / Fold change /veh PODN (11730768_x_at) / RFU LINC00158 (11744669_a_at) / Fold change /veh LINC00158 (11744669_a_at) / RFU DUSP10 (11751237_a_at) / Fold change /veh DUSP10 (11751237_a_at) / RFU ID3 (11757404_x_at) / Fold change /veh ID3 (11757404_x_at) / RFU PLEKHG5 (11737974_s_at) / Fold change /veh PLEKHG5 (11737974_s_at) / RFU LRRC4B (11730491_at) / Fold change /veh LRRC4B (11730491_at) / RFU GIMAP4 (11747438_a_at) / Fold change /veh GIMAP4 (11747438_a_at) / RFU KRT8 (11758183_x_at) / Fold change /veh KRT8 (11758183_x_at) / RFU CNN1 (11734310_a_at) / Fold change /veh CNN1 (11734310_a_at) / RFU VPS37D (11726825_at) / Fold change /veh VPS37D (11726825_at) / RFU C10orf10 (11716522_x_at) / Fold change /veh C10orf10 (11716522_x_at) / RFU KIR2DL2 /// KIR2DL4 /// KIR2DL5A /// KIR2DL5B /// KIR2DS1 /// KIR2DS2 /// KIR2DS3 /// KIR2DS4 /// KIR3DL3 /// KIR3DL3 /// KIR3DS1 (11738374_at) / Fold change /veh KIR2DL2 /// KIR2DL4 /// KIR2DL5A /// KIR2DL5B /// KIR2DS1 /// KIR2DS2 /// KIR2DS3 /// KIR2DS4 /// KIR3DL3 /// KIR3DL3 /// KIR3DS1 (11738374_at) / RFU C1QL1 (11718748_at) / Fold change /veh C1QL1 (11718748_at) / RFU TMPRSS4 (11747572_a_at) / Fold change /veh TMPRSS4 (11747572_a_at) / RFU HAMP (11756126_x_at) / Fold change /veh HAMP (11756126_x_at) / RFU RNFT2 (11725882_a_at) / Fold change /veh RNFT2 (11725882_a_at) / RFU NR4A2 (11747474_a_at) / Fold change /veh NR4A2 (11747474_a_at) / RFU ABCC12 (11746883_a_at) / Fold change /veh ABCC12 (11746883_a_at) / RFU TMEM136 (11760407_x_at) / Fold change /veh TMEM136 (11760407_x_at) / RFU CLDN22 /// WWC2 (11732394_at) / Fold change /veh CLDN22 /// WWC2 (11732394_at) / RFU HLA-DPB1 (11760878_x_at) / Fold change /veh HLA-DPB1 (11760878_x_at) / RFU SPINT1 (11716480_a_at) / Fold change /veh SPINT1 (11716480_a_at) / RFU GAP43 (11754022_s_at) / Fold change /veh GAP43 (11754022_s_at) / RFU A4GNT (11735810_at) / Fold change /veh A4GNT (11735810_at) / RFU PRB3 (11715151_x_at) / Fold change /veh PRB3 (11715151_x_at) / RFU TUBB4B (11761932_at) / Fold change /veh TUBB4B (11761932_at) / RFU CAPN14 (11732068_a_at) / Fold change /veh CAPN14 (11732068_a_at) / RFU TMCC2 (11721928_a_at) / Fold change /veh TMCC2 (11721928_a_at) / RFU IRGQ (11745062_a_at) / Fold change /veh IRGQ (11745062_a_at) / RFU FAM174B (11720279_a_at) / Fold change /veh FAM174B (11720279_a_at) / RFU TMPRSS4 (11748680_a_at) / Fold change /veh TMPRSS4 (11748680_a_at) / RFU FAM212B (11763350_a_at) / Fold change /veh FAM212B (11763350_a_at) / RFU PLEKHG5 (11743358_a_at) / Fold change /veh PLEKHG5 (11743358_a_at) / RFU ZSCAN30 (11745921_a_at) / Fold change /veh ZSCAN30 (11745921_a_at) / RFU CMKLR1 (11741424_a_at) / Fold change /veh CMKLR1 (11741424_a_at) / RFU LOC101060620 /// MAPK8IP1 (11723275_at) / Fold change /veh LOC101060620 /// MAPK8IP1 (11723275_at) / RFU SPTSSB (11747773_x_at) / Fold change /veh SPTSSB (11747773_x_at) / RFU PRSS12 (11739890_at) / Fold change /veh PRSS12 (11739890_at) / RFU BIN1 (11741810_x_at) / Fold change /veh BIN1 (11741810_x_at) / RFU WNT11 (11732464_a_at) / Fold change /veh WNT11 (11732464_a_at) / RFU C10orf10 (11716521_a_at) / Fold change /veh C10orf10 (11716521_a_at) / RFU C5orf56 (11738089_at) / Fold change /veh C5orf56 (11738089_at) / RFU CYB561 (11721691_x_at) / Fold change /veh CYB561 (11721691_x_at) / RFU ANKRD19P (11752326_a_at) / Fold change /veh ANKRD19P (11752326_a_at) / RFU OR2T12 /// OR2T33 /// OR2T8 (11738714_s_at) / Fold change /veh OR2T12 /// OR2T33 /// OR2T8 (11738714_s_at) / RFU VCAN (11748164_a_at) / Fold change /veh VCAN (11748164_a_at) / RFU JSRP1 (11732532_at) / Fold change /veh JSRP1 (11732532_at) / RFU KRTAP10-11 (11738290_x_at) / Fold change /veh KRTAP10-11 (11738290_x_at) / RFU MYO3A (11730013_a_at) / Fold change /veh MYO3A (11730013_a_at) / RFU EBF3 (11725865_a_at) / Fold change /veh EBF3 (11725865_a_at) / RFU CAMK2N1 (11719241_x_at) / Fold change /veh CAMK2N1 (11719241_x_at) / RFU C5orf56 (11738088_a_at) / Fold change /veh C5orf56 (11738088_a_at) / RFU OLFML3 (11715873_a_at) / Fold change /veh OLFML3 (11715873_a_at) / RFU LOC100653217 /// NTM (11731650_a_at) / Fold change /veh LOC100653217 /// NTM (11731650_a_at) / RFU MAPK11 (11762145_a_at) / Fold change /veh MAPK11 (11762145_a_at) / RFU FIZ1 (11724087_x_at) / Fold change /veh FIZ1 (11724087_x_at) / RFU OASL (11726364_x_at) / Fold change /veh OASL (11726364_x_at) / RFU SOX15 (11748057_x_at) / Fold change /veh SOX15 (11748057_x_at) / RFU CD79A (11719716_a_at) / Fold change /veh CD79A (11719716_a_at) / RFU HIST1H1D (11736915_at) / Fold change /veh HIST1H1D (11736915_at) / RFU CASKIN2 (11723855_a_at) / Fold change /veh CASKIN2 (11723855_a_at) / RFU LOC730098 (11760151_x_at) / Fold change /veh LOC730098 (11760151_x_at) / RFU OR4N2 (11742367_at) / Fold change /veh OR4N2 (11742367_at) / RFU PRRT2 (11749266_a_at) / Fold change /veh PRRT2 (11749266_a_at) / RFU SNX32 (11753110_a_at) / Fold change /veh SNX32 (11753110_a_at) / RFU CDHR5 (11726645_a_at) / Fold change /veh CDHR5 (11726645_a_at) / RFU RCAN1 (11760418_a_at) / Fold change /veh RCAN1 (11760418_a_at) / RFU FAM167A (11723789_a_at) / Fold change /veh FAM167A (11723789_a_at) / RFU FAM26E (11764081_at) / Fold change /veh FAM26E (11764081_at) / RFU ISYNA1 (11749810_s_at) / Fold change /veh ISYNA1 (11749810_s_at) / RFU ACY1 (11761880_at) / Fold change /veh ACY1 (11761880_at) / RFU 11764098_at / Fold change /veh 11764098_at / RFU SAMD14 (11745864_x_at) / Fold change /veh SAMD14 (11745864_x_at) / RFU NPB (11741838_a_at) / Fold change /veh NPB (11741838_a_at) / RFU TMPRSS6 (11731388_a_at) / Fold change /veh TMPRSS6 (11731388_a_at) / RFU KRTAP10-2 (11738614_at) / Fold change /veh KRTAP10-2 (11738614_at) / RFU ARHGAP8 /// PRR5-ARHGAP8 (11727945_x_at) / Fold change /veh ARHGAP8 /// PRR5-ARHGAP8 (11727945_x_at) / RFU KRTAP5-7 /// NADSYN1 (11734609_at) / Fold change /veh KRTAP5-7 /// NADSYN1 (11734609_at) / RFU RASL12 (11751679_a_at) / Fold change /veh RASL12 (11751679_a_at) / RFU CDKN2B (11736163_a_at) / Fold change /veh CDKN2B (11736163_a_at) / RFU PRF1 (11729649_at) / Fold change /veh PRF1 (11729649_at) / RFU, ZNF638 /// ZNF638-IT1 / Fold change vs veh, ZNF638 /// ZNF638-IT1 / RFU, PANK3 / Fold change vs veh, PANK3 / RFU, SH3YL1 / Fold change vs veh, SH3YL1 / RFU, ZEB2 / Fold change vs veh, ZEB2 / RFU, NRIP1 / Fold change vs veh, NRIP1 / RFU, PTTG1IP / Fold change vs veh, PTTG1IP / RFU, CAPN2 / Fold change vs veh, CAPN2 / RFU, MED14 / Fold change vs veh, MED14 / RFU, SNORA58 / Fold change vs veh, SNORA58 / RFU, C1orf63 / Fold change vs veh, C1orf63 / RFU, LRRFIP1 / Fold change vs veh, LRRFIP1 / RFU, NDUFAF7 / Fold change vs veh, NDUFAF7 / RFU, SLC12A2 / Fold change vs veh, SLC12A2 / RFU, IBTK / Fold change vs veh, IBTK / RFU, ESF1 / Fold change vs veh, ESF1 / Fold change vs veh, TMEM50B / RFU, TAOK1 / Fold change vs veh, TAOK1 / RFU, ACBD3 / Fold change vs veh, ACBD3 / RFU, TMA16 / Fold change vs veh, TMA16 / RFU, RWDD3 / Fold change vs veh, RWDD3 / RFU, BCAT1 / Fold change vs veh, BCAT1 / RFU, EDEM3 / Fold change vs veh, EDEM3 / RFU, TMEM33 / Fold change vs veh, TMEM33 / RFU, WDR75 / Fold change vs veh, WDR75 / RFU, AHCTF1 / Fold change vs veh, AHCTF1 / RFU, TFRC / Fold change vs veh, TFRC / RFU, ZDHHC17 / Fold change vs veh, ZDHHC17 / RFU, NOM1 / Fold change vs veh, NOM1 / RFU, ARL8B / Fold change vs veh, ARL8B / RFU, ZBTB11 / Fold change vs veh, ZBTB11 / RFU, TAMM41 / Fold change vs veh, TAMM41 / RFU, KIAA1704 /// LOC100996395 / Fold change vs veh, KIAA1704 /// LOC100996395 / RFU, ING1 / Fold change vs veh, ING1 / RFU, TRMT61B / Fold change vs veh, TRMT61B / RFU, FUBP3 / Fold change vs veh, FUBP3 / RFU, TP53 / Fold change vs veh, TP53 / RFU, TNKS2 / Fold change vs veh, TNKS2 / RFU, ZFP14 / Fold change vs veh, ZFP14 / RFU, ACTR2 / Fold change vs veh, ACTR2 / RFU, PPP3R1 / Fold change vs veh, PPP3R1 / RFU, PIK3R1 / Fold change vs veh, PIK3R1 / RFU, HNRNPA1 / Fold change vs veh, HNRNPA1 / RFU, RNF170 / Fold change vs veh, RNF170 / RFU, ZNF28 / Fold change vs veh, ZNF28 / RFU, RNGTT / Fold change vs veh, RNGTT / RFU, OGT / Fold change vs veh, OGT / RFU, BRD1 / Fold change vs veh, BRD1 / RFU, MARS / Fold change vs veh, MARS / RFU, ZNF655 / Fold change vs veh, ZNF655 / RFU, FAHD1 / Fold change vs veh, FAHD1 / RFU, BDP1 / Fold change vs veh, BDP1 / RFU, LRRCC1 / Fold change vs veh, LRRCC1 / RFU, ARID1A / Fold change vs veh, ARID1A / RFU, ZNF146 / Fold change vs veh, ZNF146 / RFU, ZNF330 / Fold change vs veh, ZNF330 / RFU, GPN3 / Fold change vs veh, GPN3 / RFU, C9orf123 / Fold change vs veh, C9orf123 / RFU, N4BP2L2 / Fold change vs veh, N4BP2L2 / RFU, ARFIP1 / Fold change vs veh, ARFIP1 / RFU, FAM179B / Fold change vs veh, FAM179B / RFU, BCL10 / Fold change vs veh, BCL10 / RFU, UHRF1BP1L / Fold change vs veh, UHRF1BP1L / RFU, BET1 / Fold change vs veh, BET1 / RFU, CNOT2 / Fold change vs veh, CNOT2 / RFU, ZNF268 / Fold change vs veh, ZNF268 / Fold change vs veh, ZNF507 / RFU, DGCR2 / Fold change vs veh, DGCR2 / RFU, WDSUB1 / Fold change vs veh, WDSUB1 / Fold change vs veh, HSP90B1 /// MIR3652 / RFU, ADSS / Fold change vs veh, ADSS / RFU, GK / Fold change vs veh, GK / RFU, ZNF148 / Fold change vs veh, ZNF148 / RFU, TAF9 / Fold change vs veh, TAF9 / RFU, SLC1A5 / Fold change vs veh, SLC1A5 / RFU, SLMO2 / Fold change vs veh, SLMO2 / RFU, ABCC4 / Fold change vs veh, ABCC4 / RFU, LOC101060439 /// RAP1B / Fold change vs veh, LOC101060439 /// RAP1B / RFU, RFX7 / Fold change vs veh, RFX7 / RFU, GTPBP10 / Fold change vs veh, GTPBP10 / RFU, CNEP1R1 / Fold change vs veh, CNEP1R1 / RFU, BIVM-ERCC5 /// ERCC5 / Fold change vs veh, BIVM-ERCC5 /// ERCC5 / RFU, ILF3 / Fold change vs veh, ILF3 / RFU 11762660_at / Fold change /veh 11762660_at / RFU VCAN (11757783_s_at) / Fold change /veh VCAN (11757783_s_at) / RFU DDX43 (11728927_at) / Fold change /veh DDX43 (11728927_at) / RFU KRT8 (11758188_x_at) / Fold change /veh KRT8 (11758188_x_at) / RFU NKD1 (11759106_at) / Fold change /veh NKD1 (11759106_at) / RFU SRD5A1 (11742802_a_at) / Fold change /veh SRD5A1 (11742802_a_at) / RFU TPSAB1 /// TPSB2 (11721975_s_at) / Fold change /veh TPSAB1 /// TPSB2 (11721975_s_at) / RFU GSTM3 (11746129_a_at) / Fold change /veh GSTM3 (11746129_a_at) / RFU IL23R (11737362_x_at) / Fold change /veh IL23R (11737362_x_at) / RFU TMEM51 (11727254_a_at) / Fold change /veh TMEM51 (11727254_a_at) / RFU PIWIL2 (11732686_x_at) / Fold change /veh PIWIL2 (11732686_x_at) / RFU ORM1 (11744905_x_at) / Fold change /veh ORM1 (11744905_x_at) / RFU CCDC152 (11743942_at) / Fold change /veh CCDC152 (11743942_at) / RFU ECM1 (11717891_a_at) / Fold change /veh ECM1 (11717891_a_at) / RFU IL23R (11748794_a_at) / Fold change /veh IL23R (11748794_a_at) / RFU TNFAIP8L3 (11732012_x_at) / Fold change /veh TNFAIP8L3 (11732012_x_at) / RFU MBOAT4 (11741988_at) / Fold change /veh MBOAT4 (11741988_at) / RFU 11764193_at / Fold change /veh 11764193_at / RFU TMEM53 (11763286_at) / Fold change /veh TMEM53 (11763286_at) / RFU MAGEB2 (11727129_at) / Fold change /veh MAGEB2 (11727129_at) / RFU TMEM200A (11744735_a_at) / Fold change /veh TMEM200A (11744735_a_at) / RFU CCDC152 (11751479_a_at) / Fold change /veh CCDC152 (11751479_a_at) / RFU FAM211A (11726209_a_at) / Fold change /veh FAM211A (11726209_a_at) / RFU RGS16 (11746705_a_at) / Fold change /veh RGS16 (11746705_a_at) / RFU VCAN (11755009_s_at) / Fold change /veh VCAN (11755009_s_at) / RFU RHOB (11743442_s_at) / Fold change /veh RHOB (11743442_s_at) / RFU RGS16 (11720943_a_at) / Fold change /veh RGS16 (11720943_a_at) / RFU RGS16 (11720944_at) / Fold change /veh RGS16 (11720944_at) / RFU, VPS4B / Fold change vs veh, VPS4B / RFU, CREB1 / Fold change vs veh, CREB1 / RFU, DNAJC13 / Fold change vs veh, DNAJC13 / RFU, GNAQ / Fold change vs veh, GNAQ / RFU, CDK5R1 / Fold change vs veh, CDK5R1 / RFU, ZRANB3 / Fold change vs veh, ZRANB3 / RFU, CUL4A / Fold change vs veh, CUL4A / RFU, CCNY / Fold change vs veh, CCNY / RFU, UFL1 / Fold change vs veh, UFL1 / RFU, COG3 / Fold change vs veh, COG3 / RFU, DIAPH2 / Fold change vs veh, DIAPH2 / RFU, SKA2 / Fold change vs veh, SKA2 / RFU, AFF3 / Fold change vs veh, AFF3 / RFU, LMF1 / Fold change vs veh, LMF1 / RFU, IPO11 / Fold change vs veh, IPO11 / RFU, DFFB / Fold change vs veh, DFFB / RFU, FOXP1 / Fold change vs veh, FOXP1 / RFU, CARD8 / Fold change vs veh, CARD8 / RFU, STRN3 / Fold change vs veh, STRN3 / RFU, ADK / Fold change vs veh, ADK / RFU, RASSF2 / Fold change vs veh, RASSF2 / RFU, WIPF1 / Fold change vs veh, WIPF1 / RFU, LARP1B / Fold change vs veh, LARP1B / RFU, RASA1 / Fold change vs veh, RASA1 / RFU, RB1 / Fold change vs veh, RB1 / RFU, PPFIA1 / Fold change vs veh, PPFIA1 / RFU, MAT2A / Fold change vs veh, MAT2A / RFU, CCT5 / Fold change vs veh, CCT5 / RFU, WDR92 / Fold change vs veh, WDR92 / RFU, CUX1 / Fold change vs veh, CUX1 / RFU, TTC7A / Fold change vs veh, TTC7A / RFU, TMEM135 / Fold change vs veh, TMEM135 / RFU, DEPTOR / Fold change vs veh, DEPTOR / RFU, CPM / Fold change vs veh, CPM / RFU, DNAJB6 / Fold change vs veh, DNAJB6 / RFU, CACNA2D3 / Fold change vs veh, CACNA2D3 / RFU, DTX4 / Fold change vs veh, DTX4 / RFU, TFCP2 / Fold change vs veh, TFCP2 / RFU, GMCL1 /// GMCL1P1 / Fold change vs veh, GMCL1 /// GMCL1P1 / RFU, AEBP2 / Fold change vs veh, AEBP2 / RFU, SNHG1 /// SNORD22 /// SNORD25 /// SNORD26 /// SNORD27 /// SNORD28 /// SNORD29 /// SNORD31 / Fold change vs veh, SNHG1 /// SNORD22 /// SNORD25 /// SNORD26 /// SNORD27 /// SNORD28 /// SNORD29 /// SNORD31 / Fold change (Aza/veh), C12orf56 (ProbeSet 11735607_a_at) / Fold change (ACY-1035/veh), C12orf56 (ProbeSet 11735607_a_at) / Fold change (Aza/veh), FGFR1OP (ProbeSet 11751329_s_at) / Fold change (ACY-1035/veh), FGFR1OP (ProbeSet 11751329_s_at) / Fold change (Aza/veh), VPS36 (ProbeSet 11739960_a_at) / Fold change (ACY-1035/veh), VPS36 (ProbeSet 11739960_a_at) / RFU SYPL1 (11715823_x_at) / Fold change /veh SYPL1 (11715823_x_at) / RFU IGFBP7 (11715501_s_at) / Fold change /veh IGFBP7 (11715501_s_at) / RFU REEP3 (11722064_at) / Fold change /veh REEP3 (11722064_at) / RFU IGLL1 (11728026_x_at) / Fold change /veh IGLL1 (11728026_x_at): dose or concentration left out as unconfirmed
Details: ProbeSet 11753623_s_at; LIST D

Nc1ccc(-c2cccs2)cc1NC(=O)c1ccc2c(c1)cc(C1CC1)n2CCN1CCOCC1 [ACY-1035]
RFU, LOC101060439 /// RAP1B: 312.98 RFU

From paper PMC5218480 (PLoS ONE, 2017)
